Activity calls are given as the source filed them. The rule behind the calls is not given here.
Assays:
[1] = biological target: T1, Ubiquitin carboxyl-terminal hydrolase 7 (Homo sapiens, UniProt Q93009); assay: Inhibition of full-length USP7 (unknown origin) using ubiquitin-rhodamine 110 as substrate preincubated for 30 mins followed by substrate addition and measured after 2 hrs by microplate spectrophotometer analysis
[2] = biological target: T1, Ubiquitin carboxyl-terminal hydrolase 7; assay: Binding affinity to human USP7 (208 to 560 residues) by SPR method
[3] = tested on: MC-38; assay: Antitumor activity against mouse MC38 cells allografted in po dosed C57BL/6J mouse assessed as reduction in tumor growth administered once daily for 21 days; assay type: functional, organism-based; conditions: time 21.0 day, DDE = dose-dependent effect
[4] = tested on: MC-38; assay: Antitumor activity against mouse MC38 cells allografted in C57BL/6J mouse assessed as tumor growth inhibition at 100 mg/kg, po administered once daily for 21 days; assay type: functional; conditions: MC-38, 504 h, time 21 day, read-out: TGI
[5] = tested on: MC-38; assay: Antitumor activity against mouse MC38 cells allografted in C57BL/6J mouse assessed as tumor growth inhibition at 20 mg/kg, po administered once daily for 21 days; assay type: functional; conditions: MC-38, 504 h, time 21 day, read-out: TGI
[6] = tested on: MC-38; assay: Antitumor activity against mouse MC38 cells allografted in C57BL/6J mouse assessed as decrease in spleen index at 20 to 100 mg/kg, po administered daily for 20 days; assay type: functional, organism-based; conditions: dose 20-100 mg/kg, time 20.0 day
[7] = tested on: MC-38; assay: Antitumor activity against mouse MC38 cells allografted in C57BL/6J mouse assessed as upregulation of CD8+ T-cells in T-lymphocytes at 100 mg/kg, po administered daily for 20 days (reference value: 5.2%); assay type: functional; conditions: time 20 day
[8] = tested on: MC-38; assay: Antitumor activity against mouse MC38 cells allografted in C57BL/6J mouse assessed as upregulation of NKT-cells in CD45+ cells at 20 mg/kg, po administered daily for 20 days (reference value: […]); assay type: functional; conditions: time 20 day
[9] = tested on: MC-38; assay: Antitumor activity against mouse MC38 cells allografted in C57BL/6J mouse assessed as upregulation of NKT-cells in CD45+ cells at 100 mg/kg, po administered daily for 20 days (reference value: […]); assay type: functional; conditions: time 20 day
[10] = tested on: MC-38; assay: Antitumor activity against mouse MC38 cells allografted in C57BL/6J mouse assessed as upregulation of NK-cells in CD45+ cells at 20 mg/kg, po administered daily for 20 days (reference value: 3.7%); assay type: functional; conditions: time 20 day
[11] = tested on: MC-38; assay: Antitumor activity against mouse MC38 cells allografted in C57BL/6J mouse assessed as upregulation of NK-cells in CD45+ cells at 100 mg/kg, po administered daily for 20 days (reference value: 3.7%); assay type: functional; conditions: time 20 day
[12] = tested on: MC-38; assay: Antitumor activity against mouse MC38 cells allografted in C57BL/6J mouse assessed as downregulation of Treg in CD4+ T-cells at 100 mg/kg, po administered daily for 20 days (reference value: 10.1%); assay type: functional; conditions: time 20 day
[13] = tested on: MC-38; assay: Antitumor activity against mouse MC38 cells allografted in C57BL/6J mouse assessed as downregulation of MDCS in CD45+ […] at 100 mg/kg, po administered daily for 20 days (reference value: 27.9%); assay type: functional; conditions: time 20 day
[14] = tested on: MC-38; assay: Antitumor activity against mouse MC38 cells allografted in C57BL/6J mouse assessed as increase in M1 cells at 20 mg/kg, po administered daily for 20 days; assay type: functional, organism-based; conditions: time 20.0 day
[15] = tested on: MC-38; assay: Antitumor activity against mouse MC38 cells allografted in C57BL/6J mouse assessed as decrease in M2 cells at 20 mg/kg, po administered daily for 20 days; assay type: functional, organism-based; conditions: time 20.0 day
[16] = tested on: MC-38; assay: Antitumor activity against mouse MC38 cells allografted in C57BL/6J mouse assessed as increase in ratio of M1 to M2 cells at 20 mg/kg, po administered daily for 20 days; assay type: functional, organism-based; conditions: time 20.0 day
[17] = tested on: MC-38; assay: Antitumor activity against mouse MC38 cells allografted in C57BL/6J mouse assessed as increase in TNFalpha level at 20 mg/kg, po administered daily for 20 days by ELISA (reference value: […]); assay type: functional; conditions: time 20 day
[18] = tested on: MC-38; assay: Antitumor activity against mouse MC38 cells allografted in C57BL/6J mouse assessed as increase in TNFalpha level at 100 mg/kg, po administered daily for 20 days by ELISA (reference value: […]); assay type: functional; conditions: time 20 day
[19] = tested on: MC-38; assay: Antitumor activity against mouse MC38 cells allografted in C57BL/6J mouse assessed as increase in INFalpha level at 100 mg/kg, po administered daily for 20 days by ELISA; assay type: functional, organism-based; conditions: time 20.0 day
[20] = tested on: MC-38; assay: Antitumor activity against mouse MC38 cells allografted in C57BL/6J mouse assessed as increase in IL-2 level at 100 mg/kg, po administered daily for 20 days by ELISA; assay type: functional, organism-based; conditions: time 20.0 day

T1 sequence (Q93009 whole entry, the tested form may be a part): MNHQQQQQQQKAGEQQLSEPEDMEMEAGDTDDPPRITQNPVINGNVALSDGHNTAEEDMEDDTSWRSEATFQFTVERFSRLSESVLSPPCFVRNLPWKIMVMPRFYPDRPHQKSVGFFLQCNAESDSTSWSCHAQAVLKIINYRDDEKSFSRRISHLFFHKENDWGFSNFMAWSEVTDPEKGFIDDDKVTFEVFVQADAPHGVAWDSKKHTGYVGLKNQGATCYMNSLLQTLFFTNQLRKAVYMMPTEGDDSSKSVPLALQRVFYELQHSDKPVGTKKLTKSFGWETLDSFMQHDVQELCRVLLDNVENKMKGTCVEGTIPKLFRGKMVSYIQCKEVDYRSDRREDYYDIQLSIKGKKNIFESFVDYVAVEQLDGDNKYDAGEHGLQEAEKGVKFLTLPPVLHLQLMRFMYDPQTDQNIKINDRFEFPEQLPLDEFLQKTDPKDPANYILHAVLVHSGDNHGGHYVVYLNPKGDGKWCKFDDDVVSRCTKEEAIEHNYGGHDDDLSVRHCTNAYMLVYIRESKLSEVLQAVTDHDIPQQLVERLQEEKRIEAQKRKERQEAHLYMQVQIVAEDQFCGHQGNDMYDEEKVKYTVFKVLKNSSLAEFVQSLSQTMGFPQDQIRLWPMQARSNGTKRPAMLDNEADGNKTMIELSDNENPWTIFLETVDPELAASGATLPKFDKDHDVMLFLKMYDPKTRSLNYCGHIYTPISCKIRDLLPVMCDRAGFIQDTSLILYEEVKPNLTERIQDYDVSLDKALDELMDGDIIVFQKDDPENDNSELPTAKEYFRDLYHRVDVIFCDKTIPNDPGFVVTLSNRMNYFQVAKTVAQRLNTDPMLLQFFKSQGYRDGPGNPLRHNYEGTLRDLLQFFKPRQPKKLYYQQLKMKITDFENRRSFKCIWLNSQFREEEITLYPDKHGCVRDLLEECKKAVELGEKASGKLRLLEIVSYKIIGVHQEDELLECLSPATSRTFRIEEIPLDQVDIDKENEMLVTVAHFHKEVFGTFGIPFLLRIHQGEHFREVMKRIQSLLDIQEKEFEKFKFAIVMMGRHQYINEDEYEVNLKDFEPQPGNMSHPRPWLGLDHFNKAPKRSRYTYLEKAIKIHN

For Cn1nc2c(=O)n(CC3(O)CCN(Cc4ccc(-c5ccco5)cc4Cl)CC3)cnc2c1-c1ccc(F)cc1, the IC50 [1] was 64.5 nM, the Kd [2] was 541 nM and the Activity [3] was “Dde”. For the same compound, the inhibition in vivo at 100 mg/kg [4] was 74.2%, the inhibition in vivo at 20 mg/kg [5] was 36.6% and the Activity [6] was “Active”. The Activity [7] was 9.9%, the Activity [8] was 9.8% and the Activity [9] was 18%. The Activity [10] was 7.5%, the Activity [11] was 12.2% and the Activity [12] was 5.8%. The Activity [13] was 11.4%, the Activity [14] was “Active” and the Activity [15] was “Active”. The Activity [16] was “Active”, the Activity [17] was 2.66 pg/mL and the Activity [18] was 2.79 pg/mL. The Activity [19] was “Active” and the Activity [20] was “Active”.
